Tests used:
Trypsin = target: T1, Trypsin (Bos taurus, UniProt P00760); test: Anti-trypsin activity (hydrolysis of TAME); assay type: biochemical; conditions: for IC50: molar concentration inhibiting 50% of TAME hydrolysis, read-out: ID50 trypsin
T1 sequence (P00760 24-246): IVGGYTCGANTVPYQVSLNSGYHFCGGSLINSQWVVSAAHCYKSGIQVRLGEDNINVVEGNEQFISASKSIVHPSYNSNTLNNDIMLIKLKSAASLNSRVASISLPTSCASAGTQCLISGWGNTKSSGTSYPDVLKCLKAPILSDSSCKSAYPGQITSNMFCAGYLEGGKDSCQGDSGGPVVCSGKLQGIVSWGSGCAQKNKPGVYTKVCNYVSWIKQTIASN
Procedure: (§1) The anti-trypsin, anti-plasmin, anti-kallikrein and anti-thrombin activities were determined according to the method of Muramatsu et al. [M. Muramatus, T. Onishi, S. Makino, Y. Hayashi and S. Fujii, J. of Biochem., 58, 214 (1965)]. The data summarized in Table 1 are expressed in terms of molar concentration (ID50) of the test compound which inhibits 50% of the activity of each enzyme to hydrolyze TAME (tosylalginine methyl ester). The compound No. corresponds to the compound number shown in Examples.

Plasmin = Plasmin (Homo sapiens, UniProt P00747); test: Anti-plasmin activity (hydrolysis of TAME); assay type: biochemical; conditions: for IC50: molar concentration inhibiting 50% of TAME hydrolysis, read-out: ID50 plasmin; for inhibition at 10 µM: figure in parentheses, at 1×10^-5 M, TAME, read-out: percentage inhibition of plasmin
Procedure: The anti-trypsin, anti-plasmin, anti-kallikrein and anti-thrombin activities were determined according to the method of Muramatsu et al. [M. Muramatus, T. Onishi, S. Makino, Y. Hayashi and S. Fujii, J. of Biochem., 58, 214 (1965)]. […] The compound No. corresponds to the compound number shown in Examples.

Kallikrein = test: Anti-kallikrein activity (hydrolysis of TAME); assay type: biochemical; conditions: molar concentration inhibiting 50% of TAME hydrolysis; read-out: ID50 kallikrein
Procedure: as §1

Thrombin = Thrombin (Homo sapiens, UniProt P00734); test: biochemical; conditions: for IC50: molar concentration inhibiting 50% of TAME hydrolysis, read-out: ID50 thrombin
C1r = target: T2, C1r (Homo sapiens, UniProt P00736); test: biochemical; conditions: molar concentration inhibiting 50% of AAME hydrolysis; read-out: ID50 C1r (Anti-C1 activity)
T2 sequence (P00736 464-705 limits assumed): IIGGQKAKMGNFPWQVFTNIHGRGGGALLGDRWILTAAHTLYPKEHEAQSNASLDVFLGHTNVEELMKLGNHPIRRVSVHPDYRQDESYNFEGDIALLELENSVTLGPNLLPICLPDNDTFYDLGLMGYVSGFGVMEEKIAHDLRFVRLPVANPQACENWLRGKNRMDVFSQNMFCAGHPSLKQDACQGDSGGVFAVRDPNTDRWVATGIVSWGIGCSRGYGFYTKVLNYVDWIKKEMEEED
T2 sequence (P00736 18-463 partner limits assumed): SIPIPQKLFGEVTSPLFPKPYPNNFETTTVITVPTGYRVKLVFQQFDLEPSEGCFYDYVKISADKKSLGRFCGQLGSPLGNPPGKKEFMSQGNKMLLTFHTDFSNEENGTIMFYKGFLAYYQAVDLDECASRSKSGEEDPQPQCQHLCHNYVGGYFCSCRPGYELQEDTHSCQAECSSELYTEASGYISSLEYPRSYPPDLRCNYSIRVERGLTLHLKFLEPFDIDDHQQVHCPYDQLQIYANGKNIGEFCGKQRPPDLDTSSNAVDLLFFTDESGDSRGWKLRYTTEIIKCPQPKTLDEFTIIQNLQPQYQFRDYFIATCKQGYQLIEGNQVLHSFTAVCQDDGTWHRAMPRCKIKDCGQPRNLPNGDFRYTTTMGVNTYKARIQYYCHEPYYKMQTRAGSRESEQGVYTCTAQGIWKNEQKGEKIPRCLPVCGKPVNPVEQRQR

C1s = target: T3, C1s (Homo sapiens, UniProt P09871); test: Anti-C1s activity (hydrolysis of ATEE); assay type: biochemical; conditions: molar concentration inhibiting 50% of ATEE hydrolysis; read-out: ID50 C1s (Anti-C1 activity)
T3 sequence (P09871 438-688 limits assumed): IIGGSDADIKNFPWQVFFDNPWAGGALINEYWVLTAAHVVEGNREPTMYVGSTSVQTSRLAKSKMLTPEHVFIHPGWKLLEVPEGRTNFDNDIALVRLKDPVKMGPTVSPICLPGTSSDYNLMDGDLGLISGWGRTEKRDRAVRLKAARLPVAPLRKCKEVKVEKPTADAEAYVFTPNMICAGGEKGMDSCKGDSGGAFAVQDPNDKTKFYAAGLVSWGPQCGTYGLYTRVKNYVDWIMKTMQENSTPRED
T3 sequence (P09871 16-437 partner limits assumed): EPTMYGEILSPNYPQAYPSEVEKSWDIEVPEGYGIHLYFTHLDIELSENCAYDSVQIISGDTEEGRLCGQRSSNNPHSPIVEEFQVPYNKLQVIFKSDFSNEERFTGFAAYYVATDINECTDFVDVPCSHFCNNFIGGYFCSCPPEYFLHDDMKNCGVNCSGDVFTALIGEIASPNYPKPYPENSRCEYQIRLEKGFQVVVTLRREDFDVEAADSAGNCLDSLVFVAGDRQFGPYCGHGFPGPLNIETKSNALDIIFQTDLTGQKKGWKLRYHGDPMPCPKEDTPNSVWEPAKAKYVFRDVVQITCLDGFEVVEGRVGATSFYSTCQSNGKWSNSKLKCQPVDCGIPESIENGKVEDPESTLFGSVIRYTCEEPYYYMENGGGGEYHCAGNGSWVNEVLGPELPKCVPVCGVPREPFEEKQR
Procedure: The anti-C1 esterase (C1r, C1s) activity was determined according to the method of Okamura et al. [K. Okamura, M. Muramatsu and B. Fujii, Biochem. Biophys. Acta, 295, 252-257 (1973)]. The inhibition of complement mediated hemolysis was determined according to the method of Baker et al. [B. R. Baker and E. H. Erickson, J. Med. Chem. 12, 408-414 (1969)]. The figures in Table 2 have the following meanings:
C1s: Molar concentration of the test compound which inhibits 50% of the ability of C1s to hydrolyse ATEE (acetyltyrosin ethyl ester) (ID50).

complement = test: Inhibition of complement mediated hemolysis; assay type: cell-based
Procedure: The complement mediated hemolysis is widely used as a means to determine the titration of complement. The principle of this method is based on the fact that hemolysis is caused by the activation of complement, when the latter is added to a complex (immune complex) of erythrocytes and the antibody thereof. The degree of hemolysis varies in proportion to the amount of complement added. Therefore, when a known amount of complement admixed with a C1 esterase inhibitor is used, the hemolysis must be suppressed in proportion to the inhibitory activity.
The anti-C1 esterase (C1r, C1s) activity was determined according to the method of Okamura et al. [K. Okamura, M. Muramatsu and B. Fujii, Biochem. Biophys. […] The figures in Table 2 have the following meanings: […]

Forssman shock = test: Forssman shock; assay type: in vivo, guinea pig; conditions: test compound 3 mg/kg before intravenous hemolysin; individual male guinea pigs; control died at 278, 318, 296 sec.
Source text: Quite different from other animals, guinea pig has on the surface of its organs a specific antigen called Forssman antigen which specifically reacts with the antibody of sheep erythrocyte. Forssman shock is based on the above principle and is a shock caused by the administration of antibody of sheep erythrocyte to a guinea pig. The Forssman shock was investigated in detail by many researches and it was definitely shown that this shock is a model case where the complement plays the principal part and that the shock is associated with a classical pathway in which the complement system is activated progressively starting from C1. Since the participation of complement in autoimmune diseases has been established, the Forssman shock can be said to be useful means for testing a drug for autoimmune diseases. A drug effective for the treatment of Forssman shock is useful as a drug of autoimmune diseases. [Anti-trypsin, anti-plasmin, anti-kallikrein and anti-thrombin activities]
The experiment was performed according to the method of I. G. Offerness et al. [Biochem. Pharmacol., 27 (14), 1873-1878 (1978)]. Male Hartlay guinea pig of about 300 g in body weight was used. Each guinea pig of the control group was administered intravenously with hemolysin (minimum dose to cause the shock) (commercial hemolysin, 5,000 U as assayed by the method of Ogata) and the time elapsed until death was observed. […]

[1] = Median lethal dose (LD50); conditions: in vivo, mouse

Chain of Plasmin (P00747 581-810 limits assumed, species assumed): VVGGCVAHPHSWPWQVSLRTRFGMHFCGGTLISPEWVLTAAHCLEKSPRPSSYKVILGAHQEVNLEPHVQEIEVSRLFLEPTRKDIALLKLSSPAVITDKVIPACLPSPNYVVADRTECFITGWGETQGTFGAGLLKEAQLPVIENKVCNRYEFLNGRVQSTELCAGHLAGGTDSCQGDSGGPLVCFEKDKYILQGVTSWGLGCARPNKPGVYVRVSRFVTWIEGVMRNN
Chain of Plasmin (P00747 97-580 partner limits assumed, species assumed): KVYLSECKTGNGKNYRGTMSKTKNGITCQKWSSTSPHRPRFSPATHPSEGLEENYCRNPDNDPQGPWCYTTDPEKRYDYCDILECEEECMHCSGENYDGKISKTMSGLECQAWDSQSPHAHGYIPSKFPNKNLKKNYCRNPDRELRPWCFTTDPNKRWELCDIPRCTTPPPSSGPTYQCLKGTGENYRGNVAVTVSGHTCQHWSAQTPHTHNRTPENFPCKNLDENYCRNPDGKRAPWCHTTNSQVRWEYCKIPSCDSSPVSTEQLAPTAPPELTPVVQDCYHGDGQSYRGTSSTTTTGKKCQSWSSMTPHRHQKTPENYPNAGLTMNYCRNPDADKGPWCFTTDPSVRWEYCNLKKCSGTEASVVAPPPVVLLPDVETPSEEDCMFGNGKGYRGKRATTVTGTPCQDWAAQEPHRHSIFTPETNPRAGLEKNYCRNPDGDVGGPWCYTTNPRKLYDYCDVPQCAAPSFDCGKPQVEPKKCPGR

| Compound | IC50 (Trypsin) | IC50 (Plasmin) | IC50 (Kallikrein) | IC50 (Thrombin) | IC50 (C1r) | IC50 (C1s) | Inhibition of complement mediated hemolysis (%) (complement; 1 × 10^-5) | Inhibition of complement mediated hemolysis (%) (complement; 1 × 10^-6) | Inhibition of complement mediated hemolysis (%) (complement; 1 × 10^-7) | time elapsed until death (survival) in Forssman shock (Forssman shock) | LD50 ([1]; ip, I.P.) | LD50 ([1]; po, P.O.) | inhibition at 10 µM (Trypsin; figure in parentheses, at 1×10^-5 M, TAME, read-out: percentage inhibition of trypsin) | inhibition at 10 µM (Plasmin) | inhibition at 10 µM (Thrombin; figure in parentheses, at 1×10^-5 M, TAME, read-out: percentage inhibition of thrombin) |
| --- | --- | --- | --- | --- | --- | --- | --- | --- | --- | --- | --- | --- | --- | --- | --- |
| N=C(N)c1ccc2cc(OC(=O)c3ccc(CN)s3)ccc2c1 [Compound No. 31, 6-amidino-2-naphthyl 5-aminomethyl-thiophene-2-carboxylate] | 20 nM | 400 nM | 400 nM | 1000 nM | 200 nM | 300 nM | 100% | 98% | 97% | Survival | 200 mg/kg | 2500 mg/kg | – | – | – |
| N=C(N)NCc1ccc(C(=O)Oc2ccc3cc(C(=N)N)ccc3c2)o1 [Compound No. 1, 6-amidino-2-naphthyl 5-guanidinomethyl-furan-2-carboxylate] | – | – | 5000 nM | – | 2000 nM | 3000 nM | 100% | 99% | 75% | Survival | 100 mg/kg | 2000 mg/kg | 35% | 15% | 22% |
| CN(C(=N)N)c1ccc(C(=O)Oc2ccc3cc(C(=N)N)ccc3c2)o1 [compound 4] | 4000 nM | – | 6000 nM | 8000 nM | 2000 nM | 300 nM | 100% | 100% | 59% | – | – | – | – | 42% | – |
| N=C(N)c1ccc2cc(OC(=O)c3ccc(CNC(=O)c4cnc5ccccc5c4)o3)ccc2c1 [compound 17] | 800 nM | 2000 nM | 1000 nM | 700 nM | 500 nM | 2000 nM | 100% | 100% | 93% | – | – | – | – | – | – |
| CN(C)CC(=O)NCc1ccc(C(=O)Oc2ccc3cc(C(=N)N)ccc3c2)o1 [compound 14] | 1000 nM | 2000 nM | 500 nM | 700 nM | 700 nM | 300 nM | 100% | 100% | 28% | – | – | – | – | – | – |
| N=C(N)c1ccc2cc(OC(=O)c3ccc(CN4CCN(Cc5ccccc5)CC4)o3)ccc2c1 [compound 26] | 300 nM | 600 nM | 3000 nM | 2000 nM | 500 nM | 4000 nM | 100% | 98% | 93% | – | – | – | – | – | – |

From patent US4563527A, “Amidine compounds” (Torii & Co., Ltd., priority 1984, dated 1986)
